In US20230129034A1, “TREATMENT OF DISEASE WITH ESTERS OF SELECTIVE RXR AGONISTS” (Io Therapeutics, Inc., priority 2017, published 2023):

Legend:
[1] = tested on: breast cancer cells; test: Proliferation of breast cancer cells in vitro; format: cell-based
[2] = Cmax after oral doses of IRX4204; conditions: in vivo, 24 mg/m2; oral doses of 24 mg/m^2/day
[3] = Thyroid function in human subjects treated with IRX4204; format: in vivo
[4] = tested on: oligodendrocyte differentiation and remyelination; test: In vitro measures of oligodendrocyte differentiation and remyelination; format: cell-based
[5] = target: T1, RXRβ (Homo sapiens, UniProt P28702); test: Competitive displacement of [3H]-9CRA from purified receptor; conditions: 10 nM [3H]-9CRA; read-out: RXR Binding Affinity Ki (nM) RXRβ
T1 construct: an expression construct including a full length RXRα, RXRβ, or RXRy; expressed in transfected cells; host or cells: CV-1
T1 sequence (P28702 1-533): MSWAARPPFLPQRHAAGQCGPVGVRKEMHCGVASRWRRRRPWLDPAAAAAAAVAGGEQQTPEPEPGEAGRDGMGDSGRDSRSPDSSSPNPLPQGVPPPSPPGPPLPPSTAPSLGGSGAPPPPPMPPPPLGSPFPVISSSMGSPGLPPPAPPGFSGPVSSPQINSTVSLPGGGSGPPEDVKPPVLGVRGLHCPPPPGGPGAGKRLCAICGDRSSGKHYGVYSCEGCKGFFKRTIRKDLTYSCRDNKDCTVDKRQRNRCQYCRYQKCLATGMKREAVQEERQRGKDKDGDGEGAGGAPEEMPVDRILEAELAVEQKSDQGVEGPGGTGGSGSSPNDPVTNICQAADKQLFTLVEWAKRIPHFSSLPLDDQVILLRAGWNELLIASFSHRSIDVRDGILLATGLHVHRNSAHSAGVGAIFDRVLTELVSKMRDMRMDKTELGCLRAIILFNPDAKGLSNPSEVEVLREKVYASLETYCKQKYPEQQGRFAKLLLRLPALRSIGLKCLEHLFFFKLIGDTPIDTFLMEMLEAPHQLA
Source text: (§1) Standard errors (±) among independent experiments are indicated.

[6] = target: RARγ (Homo sapiens, UniProt P13631); test: Competitive displacement of [3H]-ATRA from purified receptor; conditions: 5 nM [3H]-ATRA; read-out: RAR Binding Affinity Ki (nM) RARγ
Sequence of RARγ (P13631 whole entry, species assumed): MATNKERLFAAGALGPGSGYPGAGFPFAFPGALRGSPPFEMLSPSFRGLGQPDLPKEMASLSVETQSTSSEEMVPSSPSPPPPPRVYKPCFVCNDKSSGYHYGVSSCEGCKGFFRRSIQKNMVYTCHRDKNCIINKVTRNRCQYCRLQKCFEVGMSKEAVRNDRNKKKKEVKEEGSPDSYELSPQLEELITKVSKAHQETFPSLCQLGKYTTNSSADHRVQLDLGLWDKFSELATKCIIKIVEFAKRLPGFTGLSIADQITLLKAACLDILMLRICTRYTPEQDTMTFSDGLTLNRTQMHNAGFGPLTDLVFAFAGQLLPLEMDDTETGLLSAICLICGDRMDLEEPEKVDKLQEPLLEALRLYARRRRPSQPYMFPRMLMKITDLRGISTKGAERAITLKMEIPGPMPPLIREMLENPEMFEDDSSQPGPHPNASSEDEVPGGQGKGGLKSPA
Source text: as §1

[7] = target: T2, RARβ (Homo sapiens, UniProt P10826); test: as above; conditions: 5 nM [3H]-ATRA; read-out: RAR Binding Affinity Ki (nM) RARβ
T2 construct: made in house; host or cells: SF21 insect cells (baculovirus)
T2 sequence (P10826 whole entry, species assumed): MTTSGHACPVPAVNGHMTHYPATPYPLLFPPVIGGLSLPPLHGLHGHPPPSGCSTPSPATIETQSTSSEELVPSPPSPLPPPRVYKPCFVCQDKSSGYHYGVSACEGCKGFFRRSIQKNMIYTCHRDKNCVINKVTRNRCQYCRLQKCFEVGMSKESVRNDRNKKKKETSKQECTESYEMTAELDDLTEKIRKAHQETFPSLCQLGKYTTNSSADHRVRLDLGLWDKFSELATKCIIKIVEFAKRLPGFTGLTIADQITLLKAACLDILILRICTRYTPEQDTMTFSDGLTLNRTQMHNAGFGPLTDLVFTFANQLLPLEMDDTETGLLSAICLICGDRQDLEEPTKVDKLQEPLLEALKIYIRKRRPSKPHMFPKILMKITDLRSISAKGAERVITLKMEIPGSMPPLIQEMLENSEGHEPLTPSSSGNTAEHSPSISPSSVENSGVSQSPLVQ
Source text: as §1

[8] = target: T3, RARα (Homo sapiens, UniProt P10276); test: as above; conditions: 5 nM [3H]-ATRA; read-out: RAR Binding Affinity Ki (nM) RARα
T3 construct: made in house; host or cells: SF21 insect cells (baculovirus)
T3 sequence (P10276 whole entry, species assumed): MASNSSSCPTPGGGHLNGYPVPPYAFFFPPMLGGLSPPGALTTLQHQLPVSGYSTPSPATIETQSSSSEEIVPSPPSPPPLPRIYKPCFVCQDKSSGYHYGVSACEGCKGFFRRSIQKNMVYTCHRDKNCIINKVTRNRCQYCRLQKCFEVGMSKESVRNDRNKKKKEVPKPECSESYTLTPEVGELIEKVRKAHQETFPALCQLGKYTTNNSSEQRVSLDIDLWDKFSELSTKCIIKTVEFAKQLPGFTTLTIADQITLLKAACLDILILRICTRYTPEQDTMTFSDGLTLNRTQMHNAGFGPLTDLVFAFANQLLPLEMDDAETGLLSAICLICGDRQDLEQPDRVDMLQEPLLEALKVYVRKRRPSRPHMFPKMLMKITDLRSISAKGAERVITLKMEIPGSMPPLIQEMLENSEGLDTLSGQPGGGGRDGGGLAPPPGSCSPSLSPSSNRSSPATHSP
Source text: as §1

Question: Which “inhibition of proliferation of breast cancer cells” value ([1]; 10 nM) does the source give for `CC(/C=C/[C@@H]1C[C@]1(C)c1ccc2c(c1)C(C)(C)CCC2(C)C)=C\C(=O)O` [IRX4204, 3,7-dimethyl-6(S),7(S)-methano,7-[1,1,4,4-tetramethyl-1,2,3,4-tetrahydronaphth-7-yl]2(E),4(E) heptadienoic acid] here?
Answer: Its value is “observably inhibit the proliferation”.

Question: What about the “inhibition of proliferation of breast cancer cells” value ([1]; 100 nM) of the same molecule?
Answer: The value was “substantial improvement in effectiveness”.

Question: What about the Cmax [2] of the same molecule?
Answer: The Cmax was 219 nM.

Question: What about the circulating thyroxine levels [3] of the same molecule?
Answer: The circulating thyroxine levels was “reduction in circulating thyroxine levels”.

Question: What about the “plasma levels of TSH” value [3] of the same molecule?
Answer: The value was “reduction in plasma levels of TSH”.

Question: And the “concentration with marginal activity detected” value [4]?
Answer: The value was 1 pM.

Question: Which Ki [5] does the source give for `CCOC(=O)/C=C(C)/C=C/[C@@H]1C[C@]1(C)c1ccc2c(c1)C(C)(C)CCC2(C)C` [IRX4204EE, 3,7-dimethyl-6(S),7(S)-methano,7-[1,1,4,4-tetramethyl-1,2,3,4-tetrahydronaphth-7-yl]2(E),4(E) heptadienoic ethyl ester] here?
Answer: The Ki was greater than 1000 nM.

Question: And the Ki [6]?
Answer: The Ki was greater than 1000 nM.

Question: And the Ki [7]?
Answer: The Ki was greater than 1000 nM.

Question: What about the Ki [8] of the same molecule?
Answer: Its Ki is greater than 1000 nM.
